Earlier results, collected in US20250381145A1, “COMBINATION OF SGLT2 INHIBITORS AND MINERALCORTICOID RECEPTOR MODULATORS FOR USE IN TREATMENT OF CARDIORENAL DISEASES” (ASTRAZENECA AB, priority 2022, published 2025).

SMILES	solubility (BCS characterisation)
CNC(=O)C[C@H]1COc2cc(F)ccc2N1C(=O)c1ccc2c(c1)NC(=O)CO2 [AZD9977, balcinrenone]	low
CCOc1ccc(Cc2cc([C@@H]3O[C@H](CO)[C@@H](O)[C@H](O)[C@H]3O)ccc2Cl)cc1 [dapagliflozin]	high
